{
  "source": "patent EP1923473B1",
  "about": "“Bis-diglycolamides (BISDGA) as new extractants for lanthanides [Ln(III)] and actinides [An(III)] from aqueous high-level wastes” (Universidad Autónoma de Madrid, priority 2006, dated 2008)",
  "assay": "Extraction capability at different nitric acid concentrations in the aqueous phase",
  "format": "physicochemical",
  "conditions": "0.1 mol/L in 1-octanol or TPH/1-octanol mixtures",
  "procedure": "The organic solutions were prepared as indicated previously in section A). The aqueous solutions consisted of nitric acid solutions at different concentrations (0.06 mol/L, 0.11 mol/L, 0.65 mol/L, 1.0 mol/L, 3.1 mol/L and 6.7 mol/L) each of them spiked with 600 Bq of ^152Eu and 600 Bq of ^241Am. The nitric acid concentration of these solutions was determined by a potentiometric titration before and after the extraction equilibrium.\nThe organic solutions of the compound to be studied were equilibrated with the corresponding aqueous solution, according to the different nitric acid concentrations considered, as indicated previously in section B).\n600 µL of equilibrated organic phase were contacted with 600 µL of the aqueous phase of the corresponding nitric acid concentration. […]\nThe influence of the concentration of aqueous nitric acid of the aqueous phase, from 0.05 mol/L to 7 mol/L, on the extraction of Am/Eu with compound 4 was studied in different TPH/1-octanol mixtures as solvent, and also in 100% 1-octanol. To that end, the distribution coefficients of Am(III) and Eu(III) were determined for compound 4 dissolved at 0.1 mol/L in 1-octanol and in the following TPH/1-octanol mixtures: 50:50, 75:25 and 90:10 by volume, for the following nitric acid concentrations of the solution containing Am(III)/Eu(III): 0.06 mol/L; 0.11 mol/L; 0.65 mol/L; 1.0 mol/L; 3.1 mol/L and 6.7 mol/L. […]",
  "data": [
    {"substance": "2-Dioctylcarbamoylmethoxy-N-[3-[(2-dioctylcarbamoyl-methoxy-acetylamino)methyl]benzyl]acetamide [Compound 4]", "values": [
      {"measurement": "extraction capability at diluted nitric acid concentrations", "value": "very low"}
    ]}
  ]
}
